Results as given in PMC9404989, “Design and Evaluation of Short Bovine Lactoferrin-Derived Antimicrobial Peptides against Multidrug-Resistant Enterococcus faecium” (Antibiotics, 2022).

System: E. faecium
Experiment: Antibacterial activity of native LfcinB6
Assay type: cell-based, Enterococcus faecium
Details: strain and source not given

In the case of RRWQWR [LfcinB6], the “activity against E. faecium” value was “inactive”.
